Blank lines part the entries; values can stand above or below the compound they belong to.
Tests used:
Rattus norvegicus [1] = assay: Anti-inflammatory activity in carrageenan-induced Swiss albino rat assessed as reduction in paw edema by measuring swelling thickness at 10 ml/kg, po pretreated for 1 hr followed by carrageenan addition and measured up to 6 hrs at 1 hr interval relative to control; assay type: functional; design: scale not given: the % may be the effect or the level left
[2] = In vitro anti-inflammatory activity at 100 mg/ml incubated for 15 mins followed by heating for 10 mins and cooling by albumin denaturation assay relative to control
Rattus norvegicus [3] = assay: Anti-inflammatory activity in carrageenan-induced albino rat assessed as reduction in paw edema volume at 20 umol/kg, po measured at 1 hr intervals up to 4 hrs relative to control; assay type: functional; design: scale not given: the % may be the effect or the level left
Mus musculus = assay: Anti-inflammatory activity in formalin-induced Swiss albino mouse assessed as reduction in paw edema volume at 10 mg/kg, ip pretreated for 30 mins followed by formalin addition relative to control; assay type: functional; design: scale not given: the % may be the effect or the level left
[4] = molecular target: T1, Prostaglandin G/H synthase 2 (Homo sapiens, UniProt P35354); assay: Inhibition of recombinant human COX2 assessed as decrease in PGE2 release after 10 mins by ELISA
T1 sequence (P35354 whole entry): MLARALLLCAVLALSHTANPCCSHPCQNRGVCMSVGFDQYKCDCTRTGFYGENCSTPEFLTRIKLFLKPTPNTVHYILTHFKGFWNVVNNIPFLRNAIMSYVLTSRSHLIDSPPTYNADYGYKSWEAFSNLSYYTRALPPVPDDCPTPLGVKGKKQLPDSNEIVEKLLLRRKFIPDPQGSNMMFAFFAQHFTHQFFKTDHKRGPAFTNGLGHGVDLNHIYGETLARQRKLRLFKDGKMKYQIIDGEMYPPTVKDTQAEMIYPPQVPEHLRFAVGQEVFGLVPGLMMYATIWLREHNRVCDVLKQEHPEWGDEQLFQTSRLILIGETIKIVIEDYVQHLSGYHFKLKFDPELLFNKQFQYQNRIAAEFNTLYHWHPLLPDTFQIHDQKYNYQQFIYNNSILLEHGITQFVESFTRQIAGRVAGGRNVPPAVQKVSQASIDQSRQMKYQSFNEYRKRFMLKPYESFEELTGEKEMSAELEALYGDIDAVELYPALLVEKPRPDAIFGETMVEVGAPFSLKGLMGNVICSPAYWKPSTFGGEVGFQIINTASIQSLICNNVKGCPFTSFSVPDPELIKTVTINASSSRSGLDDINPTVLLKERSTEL

[5] = Selectivity ratio of IC50 for ovine COX1 to IC50 for recombinant human COX2
[6] = molecular target: T1, Prostaglandin G/H synthase 2; assay: Inhibition of COX2 (unknown origin) using arachidonic acid as substrate preincubated for 20 mins followed by substrate addition measured at 1 sec interval up to 60 secs by chemiluminescence assay
[7] = molecular target: T2, Prostaglandin G/H synthase 2 (Homo sapiens) (UniProt P35354); conditions: Blood, at 10 µM
T2 sequence (whole entry): T1 sequence (P35354 whole entry)
Description: Inhibition of COX2 in LPS-induced human whole blood at 10 uM after 24 hrs by EIA relative to control

SMILES: COc1ccc(Nc2nnc(Cn3nc(-c4ccccc4)c(-c4ccccc4)nc3=O)o2)cc1
- Activity (Rattus norvegicus [1]): 57.9 - 61.56%
- Activity [2]: 71.9 to 79.2%

SMILES: Cc1ccc(Nc2nnc(Cn3nc(-c4ccccc4)c(-c4ccccc4)nc3=O)o2)cc1
- Activity (Rattus norvegicus [1]): 57.9 - 61.56%
- Activity [2]: 71.9 to 79.2%

SMILES: COc1ccc2c(c1)c(CC(=O)O)c(C)n2C(=O)c1ccc(Cl)cc1 [INDOMETHACIN]
- Activity (Rattus norvegicus [3]): 80.96%
- Activity (Rattus norvegicus [1]): 63.56%
- Activity [2]: 82.7%

SMILES: O=c1nc(-c2ccccc2)c(-c2ccccc2)nn1Cc1nnc(S)n1-c1ccc(Cl)cc1
- Activity [2]: 71.9 to 79.2%

SMILES: Cc1ccc(Nc2nc(-c3ccccc3)c3c(n2)sc2c(Cl)nnnc23)cc1
- Activity (Rattus norvegicus [3]): 82.85%

SMILES: COc1ccc(Nc2nnc(Cn3nc(-c4ccccc4)c(-c4ccccc4)nc3=O)s2)cc1
- Activity [2]: 71.9 to 79.2%

SMILES: O=C([O-])Cc1ccccc1Nc1c(Cl)cccc1Cl.[Na+] [DICLOFENAC SODIUM]
- Activity (Mus musculus): 78.82%

SMILES: Cc1ccc(Nc2nc(-c3ccccc3)c3c(n2)sc2c(Nc4ccc(S(=O)(=O)NC(=N)N)cc4)nnnc23)cc1
- Activity (Rattus norvegicus [3]): 78.57%

SMILES: O=c1nc(-c2ccccc2)c(-c2ccccc2)nn1Cc1nnc(Nc2ccc([N+](=O)[O-])cc2)s1
- Activity [2]: 71.9 to 79.2%

- IC50 [4]: 10.1 µM
- Ratio IC50 [5]: 8.79
SMILES: CCOC(=O)CSc1nnc(-c2ccc(S(C)(=O)=O)cc2)c(-c2ccccc2)n1

SMILES: Cc1sc2nnn(-c3ccccc3)c(=O)c2c1C
- Activity (Mus musculus): 70.82%

SMILES: O=c1nc(-c2ccccc2)c(-c2ccccc2)nn1Cc1nnc(Nc2ccccc2)o1
- Activity (Rattus norvegicus [1]): 57.9 - 61.56%
- Activity [2]: 71.9 to 79.2%

SMILES: O=c1nc(-c2ccccc2)c(-c2ccccc2)nn1Cc1nnc(Nc2ccc(Cl)cc2)s1
- Activity [2]: 71.9 to 79.2%

SMILES: Cc1sc2nnn(-c3ccccc3Cl)c(=O)c2c1C
- Activity (Mus musculus): 36.47%

SMILES: Cc1ccc(-n2c(S)nnc2Cn2nc(-c3ccccc3)c(-c3ccccc3)nc2=O)cc1
- Activity [2]: 71.9 to 79.2%

SMILES: Cc1ccc(Nc2nnc(Cn3nc(-c4ccccc4)c(-c4ccccc4)nc3=O)s2)cc1
- Activity [2]: 71.9 to 79.2%

SMILES: Cc1sc2nnn(-c3ccc(F)cc3)c(=O)c2c1C
- Activity (Mus musculus): 34.12%

SMILES: O=c1nc(-c2ccccc2)c(-c2ccccc2)nn1Cc1nnc(Nc2ccccc2)s1
- Activity [2]: 71.9 to 79.2%

- IC50 [4]: 10.1 µM
- Ratio IC50 [5]: 8.79
SMILES: CCOC(=O)CSc1nnc(-c2ccc(S(C)(=O)=O)cc2)c(-c2ccc(OC)cc2)n1

SMILES: O=c1nc(-c2ccccc2)c(-c2ccccc2)nn1Cc1nnc(S)n1-c1ccc([N+](=O)[O-])cc1
- Activity [2]: 71.9 to 79.2%

SMILES: COc1ccc(-n2c(S)nnc2Cn2nc(-c3ccccc3)c(-c3ccccc3)nc2=O)cc1
- Activity [2]: 71.9 to 79.2%

- IC50 [6]: 20 µM
SMILES: CCOC(=O)c1cnn(-c2ccccn2)c1-n1nnc2ccccc2c1=O

- IC50 [4]: 10.1 µM
- Ratio IC50 [5]: 8.79
SMILES: CCOC(=O)CSc1nnc(-c2ccc(S(C)(=O)=O)cc2)c(-c2ccc(F)cc2)n1

- inhibition [7]: 78%
SMILES: COc1ccc(-c2nnc(N/N=C/c3cccc(OC)c3OC)nc2-c2ccc(OC)cc2)cc1

SMILES: O=c1nc(-c2ccccc2)c(-c2ccccc2)nn1Cc1nnc(Nc2ccc([N+](=O)[O-])cc2)o1
- Activity (Rattus norvegicus [1]): 57.9 - 61.56%
- Activity [2]: 71.9 to 79.2%

- inhibition [7]: 78%
SMILES: COc1ccc(-c2nnc(N/N=C/c3ccc4c(c3)OCO4)nc2-c2ccc(OC)cc2)cc1

SMILES: O=c1nc(-c2ccccc2)c(-c2ccccc2)nn1Cc1nnc(Nc2ccc(Cl)cc2)o1
- Activity (Rattus norvegicus [1]): 57.9 - 61.56%
- Activity [2]: 71.9 to 79.2%

- IC50 [4]: 10.1 µM
- Ratio IC50 [5]: 8.79
SMILES: CCOC(=O)CSc1nnc(-c2ccc(S(C)(=O)=O)cc2)c(-c2ccc(C)cc2)n1

- IC50 [4]: 10.1 µM
- Ratio IC50 [5]: 8.79
SMILES: CCOC(=O)CSc1nnc(-c2ccc(S(C)(=O)=O)cc2)c(-c2ccc(Cl)cc2)n1

SMILES: Cc1ccc(-c2cc(C(F)(F)F)nn2-c2ccc(S(N)(=O)=O)cc2)cc1 [CELECOXIB]
- Activity (Rattus norvegicus [1]): 62.26%
- Activity [2]: 80.3%

SMILES: Cc1sc2nnn(-c3ccc(F)c(Cl)c3)c(=O)c2c1C
- Activity (Mus musculus): 36.35%

SMILES: O=c1nc(-c2ccccc2)c(-c2ccccc2)nn1Cc1nnc(S)n1-c1ccccc1
- Activity [2]: 71.9 to 79.2%

From ChEMBL document CHEMBL4325906, “Anti-inflammatory activity of triazine derivatives: A systematic review” (Eur J Med Chem, 2019)
